Assay results from ChEMBL document CHEMBL1201861, “Genomics of Drug Sensitity in Cancer screening data, Wellcome Trust Sanger Institute”.

What was measured:
Assay in all cases: cells
KYSE-270 = format: functional, cell-based; details: Homo sapiens;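 further: cell growth inhibition measured with a viability assay in the human KYSE-270 line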
Description: SANGER: Inhibition of human KYSE-270 cell growth in a cell viability assay.

HuP-T4 = format: functional, cell-based; details: Homo sapiens;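 further: cell viability assay measuring how much HuP-T4 cell growth is inhibited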
Description: SANGER: Inhibition of human HuP-T4 cell growth in a cell viability assay.

AU565 = format: functional, cell-based; details: Homo sapiens;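 further: cell viability assay measuring growth inhibition of human AU565 cells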
Description: SANGER: Inhibition of human AU565 cell growth in a cell viability assay.

NUGC-3 = format: functional, cell-based; details: Homo sapiens;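 further: growth inhibition of human NUGC-3 cells, read out with a cell viability assay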
Description: SANGER: Inhibition of human NUGC-3 cell growth in a cell viability assay.

KYSE-140 = format: functional, cell-based; details: Homo sapiens;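 further: cell viability assay measuring growth inhibition in human KYSE-140 cells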
Description: SANGER: Inhibition of human KYSE-140 cell growth in a cell viability assay.

A-375 = format: functional, cell-based; details: Homo sapiens;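 further: growth inhibition of A375 cells, read out with a cell viability assay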
Description: SANGER: Inhibition of human A375 cell growth in a cell viability assay.

HuCCT-1 = format: functional, cell-based, HuCCT1; details: Homo sapiens;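 further: growth inhibition of HuCCT-1 cells, read out by a cell viability assay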
Description: SANGER: Inhibition of human HuCCT1 cell growth in a cell viability assay.

UMC-11 = format: functional, cell-based; details: Homo sapiens;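 further: growth inhibition of UMC-11 cells, read out with a cell viability assay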
Description: SANGER: Inhibition of human UMC-11 cell growth in a cell viability assay.

RVH-421 = format: functional, cell-based; details: Homo sapiens
Description: SANGER: Inhibition of human RVH-421 cell growth in a cell viability assay.

FTC-133 = format: functional, cell-based; details: Homo sapiens
SK-OV-3 = format: functional, cell-based; details: Homo sapiens;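 further: growth inhibition of SK-OV-3 human cells, read out with a cell viability assay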
Description: SANGER: Inhibition of human SK-OV-3 cell growth in a cell viability assay.

PC-14 = format: functional, cell-based; details: Homo sapiens;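 further: cell viability assay measuring inhibition of PC-14 cell growth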
Description: SANGER: Inhibition of human PC-14 cell growth in a cell viability assay.

KU-19-19 = format: functional, cell-based; details: Homo sapiens
Description: SANGER: Inhibition of human KU-19-19 cell growth in a cell viability assay.

HCC 2998 = format: functional, cell-based; details: Homo sapiens;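 further: growth inhibition of human HCC2998 cells, measured with a cell viability read-out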
Description: SANGER: Inhibition of human HCC2998 cell growth in a cell viability assay.

HPAF-II = format: functional, cell-based; details: Homo sapiens;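 further: growth inhibition of HPAF-II cells, read out with a cell viability assay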
Description: SANGER: Inhibition of human HPAF-II cell growth in a cell viability assay.

NCI-H727 = format: functional, cell-based; details: Homo sapiens;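 further: growth inhibition of human NCI-H727 cells, read out with a cell viability assay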
Description: SANGER: Inhibition of human NCI-H727 cell growth in a cell viability assay.

OVCAR-8 = format: functional, cell-based; details: Homo sapiens;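 further: growth inhibition of human OVCAR-8 cells, read out by a cell viability assay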
Description: SANGER: Inhibition of human OVCAR-8 cell growth in a cell viability assay.

DU-145 = format: functional, cell-based; details: Homo sapiens
Description: SANGER: Inhibition of human DU-145 cell growth in a cell viability assay.

OE33 = format: functional, cell-based; details: Homo sapiens;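 further: growth inhibition of human OE33 cells, measured by a cell viability assay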
Description: SANGER: Inhibition of human OE33 cell growth in a cell viability assay.

SK-LU-1 = format: functional, cell-based; details: Homo sapiens;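 further: cell viability assay measuring growth inhibition of human SK-LU-1 cells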
Description: SANGER: Inhibition of human SK-LU-1 cell growth in a cell viability assay.

HGC-27 = format: functional, cell-based; details: Homo sapiens;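 further: growth inhibition of human HGC-27 cells, read out in a cell viability assay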
Description: SANGER: Inhibition of human HGC-27 cell growth in a cell viability assay.

BCPAP = format: functional, cell-based; details: Homo sapiens;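 further: growth inhibition of BCPAP cells, read out in a cell viability assay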
Description: SANGER: Inhibition of human BCPAP cell growth in a cell viability assay.

BHT-101 = format: functional, cell-based; details: Homo sapiens
Description: SANGER: Inhibition of human BHT-101 cell growth in a cell viability assay.

NCI-H1793 = format: functional, cell-based; details: Homo sapiens;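 further: cell growth inhibition, read out by a cell viability assay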
Description: SANGER: Inhibition of human NCI-H1793 cell growth in a cell viability assay.

MG-63 = format: functional, cell-based; details: Homo sapiens;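 further: growth inhibition of human MG-63 cells, read out with a cell viability assay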
Description: SANGER: Inhibition of human MG-63 cell growth in a cell viability assay.

J82 = format: functional, cell-based; details: Homo sapiens;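 further: growth inhibition of J82 cells, read out with a cell viability assay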
Description: SANGER: Inhibition of human J82 cell growth in a cell viability assay.

EFM-19 = format: functional, cell-based; details: Homo sapiens;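 further: growth inhibition of human EFM-19 cells, measured in a cell viability assay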
Description: SANGER: Inhibition of human EFM-19 cell growth in a cell viability assay.

KYSE-510 = format: functional, cell-based; details: Homo sapiens;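 further: cell viability readout used to measure how strongly growth of the cell line is suppressed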
Description: SANGER: Inhibition of human KYSE-510 cell growth in a cell viability assay.

SK-MEL-28 = format: functional, cell-based; details: Homo sapiens;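 further: growth inhibition of human SK-MEL-28 cells, read out with a cell viability assay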
Description: SANGER: Inhibition of human SK-MEL-28 cell growth in a cell viability assay.

CAL-33 = format: functional, cell-based; details: Homo sapiens;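 further: growth inhibition of CAL-33 cells, read out with a cell viability assay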
Description: SANGER: Inhibition of human CAL-33 cell growth in a cell viability assay.

KYSE-180 = format: functional, cell-based; details: Homo sapiens;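 further: growth inhibition of KYSE-180 cells, read out with a cell viability assay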
Description: SANGER: Inhibition of human KYSE-180 cell growth in a cell viability assay.

HTC-C3 = format: functional, cell-based; details: Homo sapiens;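 further: inhibition of cell growth, read out with a cell viability assay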
Description: SANGER: Inhibition of human HTC-C3 cell growth in a cell viability assay.

SK-MEL-30 = format: functional, cell-based; details: Homo sapiens;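 further: growth inhibition of SK-MEL-30 cells, determined with a cell viability assay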
Description: SANGER: Inhibition of human SK-MEL-30 cell growth in a cell viability assay.

DMS-273 = format: functional, cell-based; details: Homo sapiens
Description: SANGER: Inhibition of human DMS-273 cell growth in a cell viability assay.

HO-1-N-1 = format: functional, cell-based; details: Homo sapiens;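 further: growth inhibition of human HO-1-N-1 cells, read out with a cell viability assay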
Description: SANGER: Inhibition of human HO-1-N-1 cell growth in a cell viability assay.

KOSC-2 = format: functional, cell-based; details: Homo sapiens;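 further: growth inhibition of KOSC-2 cells, read out by a cell viability assay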
Description: SANGER: Inhibition of human KOSC-2 cell growth in a cell viability assay.

NB17 = format: functional, cell-based, Homo sapiens; details: Homo sapiens, NB17;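 further: growth inhibition of NB17 cells, read out with a cell viability assay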
Description: SANGER: Inhibition of human NB17 cell growth in a cell viability assay.

HOS = format: functional, cell-based; details: Homo sapiens;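 further: growth inhibition of human HOS cells, read out with a cell viability assay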
Description: SANGER: Inhibition of human HOS cell growth in a cell viability assay.

LK-2 = format: functional, cell-based; details: Homo sapiens;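 further: growth inhibition of LK-2 cells, read out with a viability assay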
Description: SANGER: Inhibition of human LK-2 cell growth in a cell viability assay.

PC-3 = format: functional, cell-based; details: Homo sapiens;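 further: cell viability assay measuring growth inhibition of PC-3 cells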
Description: SANGER: Inhibition of human PC-3 cell growth in a cell viability assay.

SW626 = format: functional, cell-based; details: Homo sapiens;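 further: growth inhibition of SW626 cells, measured with a cell viability assay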
Description: SANGER: Inhibition of human SW626 cell growth in a cell viability assay.

MDA-MB-175-VII = format: functional, cell-based; details: Homo sapiens
MDA-MB-415 = format: functional, cell-based; details: Homo sapiens

SMILES: O=C1NC(=O)c2c1c(-c1ccccc1Cl)cc1[nH]c3ccc(O)cc3c21
- IC50 (KYSE-270): 1.48 µM
- IC50 (HuP-T4): > 2 µM
- IC50 (AU565): > 2 µM
- IC50 (NUGC-3): > 2 µM
- IC50 (KYSE-140): > 2 µM
- IC50 (A-375): 1.52 µM
- IC50 (HuCCT-1): > 2 µM
- IC50 (UMC-11): > 2 µM
- IC50 (RVH-421): > 2 µM
- IC50 (FTC-133): > 2 µM
- IC50 (SK-OV-3): > 2 µM
- IC50 (PC-14): > 2 µM
- IC50 (KU-19-19): > 2 µM
- IC50 (HCC 2998): > 2 µM
- IC50 (HPAF-II): > 2 µM
- IC50 (NCI-H727): > 2 µM
- IC50 (OVCAR-8): 1.18 µM
- IC50 (DU-145): 0.161 µM
- IC50 (OE33): > 2 µM
- IC50 (SK-LU-1): 1 µM
- IC50 (HGC-27): > 2 µM
- IC50 (BCPAP): > 2 µM
- IC50 (BHT-101): > 2 µM
- IC50 (NCI-H1793): > 2 µM
- IC50 (MG-63): > 2 µM
- IC50 (J82): > 2 µM
- IC50 (EFM-19): > 2 µM
- IC50 (KYSE-510): > 2 µM
- IC50 (SK-MEL-28): > 2 µM
- IC50 (CAL-33): > 2 µM
- IC50 (KYSE-180): > 2 µM
- IC50 (HTC-C3): 0.995 µM
- IC50 (SK-MEL-30): > 2 µM
- IC50 (DMS-273): > 2 µM
- IC50 (HO-1-N-1): 1.39 µM
- IC50 (KOSC-2): > 2 µM
- IC50 (NB17): > 2 µM
- IC50 (HOS): > 2 µM
- IC50 (LK-2): > 2 µM
- IC50 (PC-3): > 2 µM

SMILES: O=C(NCCCNc1nc(Nc2cccc(NC(=O)N3CCCC3)c2)ncc1I)c1cccs1 [BX-795]
- IC50 (KYSE-270): > 5 µM
- IC50 (HuP-T4): > 5 µM
- IC50 (AU565): > 5 µM
- IC50 (NUGC-3): > 5 µM
- IC50 (KYSE-140): 3.72 µM
- IC50 (A-375): 1.31 µM
- IC50 (HuCCT-1): > 5 µM
- IC50 (UMC-11): 2.9 µM
- IC50 (RVH-421): > 5 µM
- IC50 (FTC-133): 3.02 µM
- IC50 (SK-OV-3): > 5 µM
- IC50 (PC-14): > 5 µM
- IC50 (KU-19-19): > 5 µM
- IC50 (HCC 2998): > 5 µM
- IC50 (HPAF-II): > 5 µM
- IC50 (SW626): > 5 µM
- IC50 (NCI-H727): > 5 µM
- IC50 (OVCAR-8): > 5 µM
- IC50 (DU-145): > 5 µM
- IC50 (OE33): > 5 µM
- IC50 (MDA-MB-175-VII): > 5 µM
- IC50 (SK-LU-1): > 5 µM
- IC50 (MDA-MB-415): > 5 µM
- IC50 (HGC-27): > 5 µM
- IC50 (BCPAP): 2.23 µM
- IC50 (BHT-101): 1.58 µM
- IC50 (NCI-H1793): > 5 µM
- IC50 (MG-63): 1.69 µM
- IC50 (J82): > 5 µM
- IC50 (EFM-19): > 5 µM
- IC50 (KYSE-510): 4.96 µM
- IC50 (SK-MEL-28): > 5 µM
- IC50 (CAL-33): > 5 µM
- IC50 (KYSE-180): > 5 µM
- IC50 (HTC-C3): > 5 µM
- IC50 (SK-MEL-30): > 5 µM
- IC50 (DMS-273): > 5 µM
- IC50 (HO-1-N-1): 1.97 µM
- IC50 (KOSC-2): 3.07 µM
- IC50 (NB17): > 5 µM
- IC50 (HOS): 1.57 µM
- IC50 (LK-2): > 5 µM
- IC50 (PC-3): 4.17 µM

SMILES: CO[C@@H]1[C@H](N(C)C(=O)c2ccccc2)C[C@H]2O[C@]1(C)n1c3ccccc3c3c4c(c5c6ccccc6n2c5c31)C(=O)NC4 [MIDOSTAURIN]
- IC50 (KYSE-270): 0.168 µM
- IC50 (HuCCT-1): 0.179 µM
- IC50 (UMC-11): > 0.512 µM
- IC50 (DU-145): 0.319 µM
- IC50 (HGC-27): > 0.512 µM
- IC50 (J82): > 0.512 µM
- IC50 (EFM-19): 0.212 µM
- IC50 (DMS-273): 0.324 µM
- IC50 (HO-1-N-1): > 0.512 µM
- IC50 (KOSC-2): > 0.512 µM
- IC50 (PC-3): > 0.512 µM

SMILES: NC1(c2ccc(-c3nc4ccn5c(=O)[nH]nc5c4cc3-c3ccccc3)cc2)CCC1 [MK-2206]
- IC50 (KYSE-270): > 4 µM
- IC50 (HuP-T4): > 4 µM
- IC50 (AU565): > 4 µM
- IC50 (NUGC-3): > 4 µM
- IC50 (KYSE-140): > 4 µM
- IC50 (HuCCT-1): > 4 µM
- IC50 (UMC-11): > 4 µM
- IC50 (RVH-421): 3.82 µM
- IC50 (FTC-133): > 4 µM
- IC50 (SK-OV-3): > 4 µM
- IC50 (PC-14): > 4 µM
- IC50 (KU-19-19): > 4 µM
- IC50 (HCC 2998): > 4 µM
- IC50 (HPAF-II): > 4 µM
- IC50 (SW626): > 4 µM
- IC50 (NCI-H727): > 4 µM
- IC50 (OVCAR-8): > 4 µM
- IC50 (DU-145): 0.647 µM
- IC50 (OE33): > 4 µM
- IC50 (MDA-MB-175-VII): 0.137 µM
- IC50 (SK-LU-1): > 4 µM
- IC50 (MDA-MB-415): 0.636 µM
- IC50 (HGC-27): 0.568 µM
- IC50 (BCPAP): > 4 µM
- IC50 (BHT-101): 0.53 µM
- IC50 (NCI-H1793): > 4 µM
- IC50 (MG-63): > 4 µM
- IC50 (EFM-19): 0.44 µM
- IC50 (KYSE-510): > 4 µM
- IC50 (CAL-33): > 4 µM
- IC50 (KYSE-180): > 4 µM
- IC50 (HTC-C3): > 4 µM
- IC50 (SK-MEL-30): > 4 µM
- IC50 (DMS-273): 1.52 µM
- IC50 (HO-1-N-1): > 4 µM
- IC50 (KOSC-2): > 4 µM
- IC50 (NB17): > 4 µM
- IC50 (HOS): 1.5 µM
- IC50 (LK-2): > 4 µM
- IC50 (PC-3): > 4 µM

SMILES: CN(C)CCOc1ccc(-c2nc(-c3ccncc3)c(-c3ccc4c(c3)CC/C4=N\O)[nH]2)cc1 [SB590885]
- IC50 (KYSE-270): > 5 µM
- IC50 (HuP-T4): > 5 µM
- IC50 (AU565): > 5 µM
- IC50 (NUGC-3): > 5 µM
- IC50 (KYSE-140): > 5 µM
- IC50 (A-375): 0.282 µM
- IC50 (HuCCT-1): > 5 µM
- IC50 (UMC-11): > 5 µM
- IC50 (RVH-421): 0.621 µM
- IC50 (FTC-133): > 5 µM
- IC50 (SK-OV-3): > 5 µM
- IC50 (PC-14): > 5 µM
- IC50 (KU-19-19): > 5 µM
- IC50 (HCC 2998): > 5 µM
- IC50 (HPAF-II): > 5 µM
- IC50 (SW626): > 5 µM
- IC50 (NCI-H727): > 5 µM
- IC50 (OVCAR-8): > 5 µM
- IC50 (DU-145): > 5 µM
- IC50 (OE33): > 5 µM
- IC50 (MDA-MB-175-VII): > 5 µM
- IC50 (SK-LU-1): > 5 µM
- IC50 (MDA-MB-415): > 5 µM
- IC50 (HGC-27): > 5 µM
- IC50 (BCPAP): > 5 µM
- IC50 (BHT-101): 1.63 µM
- IC50 (NCI-H1793): > 5 µM
- IC50 (MG-63): > 5 µM
- IC50 (EFM-19): > 5 µM
- IC50 (KYSE-510): > 5 µM
- IC50 (CAL-33): > 5 µM
- IC50 (KYSE-180): > 5 µM
- IC50 (HTC-C3): > 5 µM
- IC50 (SK-MEL-30): 1.55 µM
- IC50 (DMS-273): > 5 µM
- IC50 (HO-1-N-1): > 5 µM
- IC50 (KOSC-2): > 5 µM
- IC50 (NB17): > 5 µM
- IC50 (HOS): > 5 µM
- IC50 (LK-2): > 5 µM
- IC50 (PC-3): > 5 µM
